# Patent US4207339A, “Anti-ulcer pharmaceutical composition containing inositol hexasulfate or an alkaline metal salt thereof as active ingredient” (Mitsui Toatsu Chemicals, Incorporated, priority 1978, dated 1980)
# Counter-ions that a name gives are not always drawn. Like-named read-outs stand apart in the source and are kept apart here.
# How the values were obtained:
# [1] = tested on: Shay's Ulcer; assay: Anti-ulcer effect: Shay's ulcer (pyloric ligation); type: in vivo, Male rats of the Wistar strain; details: p.o., 12 hours, vs control U.I.
# Description: (§1) The anti-ulcer effect of some compounds of this invention was evaluated with regard to various types of experimental gastric and duodenal ulcers. The method of evaluation for each type of ulcer is outlined below.
# Male rats of the Wistar strain, 7 or 8 weeks of age, were used in groups of ten. After 48 hours of fasting, the pyloric part of the stomach was ligated under ether anesthesia. Immediately after the operation, a certain amount of a compound to be tested was orally administered to each animal of a group. After 12 hours, the degree of ulceration occurring in the anterior part of the stomach was rated and regarded as an ulcer index (U.I.). Control rats were treated in the same manner as described above, except that they received no compounds to be tested. The results given in Table 1 are expressed in terms of the percentage of inhibition based on the U.I. obtained in the control group.
# [2] = tested on: Stress Ulcer; assay: Anti-ulcer effect: stress ulcer; type: in vivo, Male rats of the Wistar strain; details: p.o., stress for 16 hours, vs control U.I.
# Description: as §1
# Male rats of the Wistar strain, 8 weeks of age, were used in groups of ten. Each animal was immobilized in a stressing cage as developed by Takagi et al., immersed in water at 23° C. to the level of the xiphoid process, and thereby subjected to stress for 16 hours. Thereafter, the stomach was excised. The length of the ulcer formed in the glandular part of the stomach was measured and regarded as an ulcer index (U.I.). A certain amount of a compound to be tested was orally administered just before subjecting the animal to stress. The results are also expressed in terms of the percentage of inhibition based on the U.I. obtained in the control group receiving no compounds to be tested.
# [3] = tested on: Aspirin Ulcer; assay: Anti-ulcer effect: aspirin ulcer; type: in vivo, Male rats of the Donryu strain; details: p.o., aspirin 250 mg/kg, 6 hours
# Description: as §1
# Male rats of the Donryu strain, 10 to 11 weeks of age, were used in groups of ten. After 24 hours of fasting, a certain amount of a compound to be tested was orally administered to each animal of a group. Ten minutes later, aspirin was orally administered in a dose of 250 mg/kg. After 6 hours, the size of the ulcer formed in the glandular part of the stomach was rated by visual inspection and regarded as an ulcer index (U.I.). The results are also expressed in terms of the percentage of inhibition based on the U.I. obtained in the control group receiving no compounds to be tested.
# [4] = tested on: Acetic Acid Ulcer; assay: Anti-ulcer effect: acetic acid ulcer; type: in vivo, Male rats of the Wistar strain; details: p.o., twice a day for 7 days
# Description: as §1
# Male rats of the Wistar strain, 6 weeks of age, were used in groups of ten. Under ether anesthesia, each animal was laparotomized, a round frame (with an inside diameter of 5 mm) made of stainless steel was applied to the anterior wall of the stomach, and 100% acetic acid was poured into the frame. After 30 seconds, the acetic acid was removed and the abdomen was closed. Starting on the 7th day after the operation, a certain amount of a compound to be tested was orally administered twice a day to each animal of a group for a period of 7 days. Thereafter, the degree of healing of the ulcer was rated by visual inspection and regarded as an ulcer index (U.I.). The results are also expressed in terms of the percentage of healing based on the U.I. obtained in the control group receiving no compounds to be tested.
# [5] = tested on: Gastric Juice Secretion; assay: Effect on gastric juice secretion (pyloric ligation); type: in vivo, Male rats of the Donryu strain; details: 250 mg/kg, p.o.; 4 hours; control 4.9 ± 0.4; significant at 5% level
# Description: (§2) Male rats of the Donryu strain, 11 weeks of age, were used in groups of ten. After 24 hours of fasting, the pyloric part of the stomach was ligated. Four hours later, the gastric juice was collected and its volume was measured. Then, its acidity was determined by titrating an aliquot of the gastric juice with 0.05 N sodium hydroxide. Further, the activity of pepsin was determined by Anson's method. A definite amount (250 mg/kg) of a compound to be tested was orally administered immediately after the pyloric ligation.
# [6] = tested on: Gastric Juice Acidity; assay: Effect on gastric juice acidity (pyloric ligation, titration with 0.05 N sodium hydroxide); type: in vivo, Male rats of the Donryu strain; details: 250 mg/kg, p.o.; 4 hours; control 92.5 ± 3.7; significant at 5% level
# Description: as §2
# [7] = tested on: pepsin; assay: Effect on pepsin activity (pyloric ligation, Anson's method); type: in vivo, Male rats of the Donryu strain; details: 250 mg/kg, p.o.; 4 hours; control 7.4 ± 0.5; significant at 1% level
# Description: as §2
# [8] = tested on: Cysteamine Duodenal Ulcer; assay: Anti-ulcer effect: cysteamine duodenal ulcer; type: in vivo, Male rats of the Donryu strain; details: p.o., cysteamine hydrochloride 400 mg/kg, 18 hours
# Description: as §1
# (iv) Cysteamine Duodenal Ulcer
# Male rats of the Donryu strain, 10 or 11 weeks of age, were used in groups of ten. After 24 hours of fasting, a certain amount of a compound to be tested was orally administered to each animal of a group. Thirty minutes later, cysteamine hydrochloride was orally administered in a dose of 400 mg/kg. After 18 hours, the product of the maximum and minimum diameters of the ulcer formed in the duodenum was determined and regarded as an ulcer index (U.I.). The results are also expressed in terms of the percentage of inhibition based on the U.I. obtained in the control group receiving no compounds to be tested.
# [9] = tested on: Mouse; details: 7 days observation
# Description: Male and female mice of the dd Y strain, 4 weeks of age, as well as male and female rats of the rats of the Wistar strain, 7 weeks of age, were used in groups of ten. They were preliminarily raised for a week. Then, a compound to be tested (sodium salt) was dissolved in physiological saline solution and administered orally or subcutaneously. In the case of oral administration, the highest possible doses of 0.2 ml/10 g for mice and 2 ml/100 g for rats were used which both corresponded to 5,000 mg/kg. In the case of subcutaneous administration, the doses were reduced to 1/2. […] The animals that died during this period of observation were subjected to post-mortem examination.
# [10] = tested on: Rat; assay: Acute toxicity in rats; type: in vivo, Male and female rats of the Wistar strain; details: 7 days observation
# Excerpt: They were preliminarily raised for a week.
SMILES,percentage of inhibition (Shay's Ulcer) ([1]; 100 mg/kg),percentage of inhibition (Shay's Ulcer) ([1]; 250 mg/kg),percentage of inhibition (Stress Ulcer) ([2]; 250 mg/kg),percentage of inhibition (Aspirin Ulcer) ([3]; 100 mg/kg),percentage of inhibition (Aspirin Ulcer) ([3]; 250 mg/kg),percentage of healing (Acetic Acid Ulcer) ([4]; 100 mg/kg),percentage of healing (Acetic Acid Ulcer) ([4]; 250 mg/kg),Amount of Gastric Juice Secreted [5] [mL],Acidity of Gastric Juice [6] [mEq/l],Activity of Pepsin [7] [mg/mL],other results
"O=S(=O)(O)OC1C(OS(=O)(=O)O)C(OS(=O)(=O)O)C(OS(=O)(=O)O)C(OS(=O)(=O)O)C1OS(=O)(=O)O (stereo not shown) [Potassium Salt, inositol hexasulfate potassium salt]",85 percentage of inhibition,80 percentage of inhibition,25 percentage of inhibition,46 percentage of inhibition,40 percentage of inhibition,28 percentage of healing,22 percentage of healing,3.5 ± 0.4,60.2 ± 11.8,5.2 ± 0.4,
"O=S(=O)([O-])OC1C(OS(=O)(=O)[O-])C(OS(=O)(=O)[O-])C(OS(=O)(=O)[O-])C(OS(=O)(=O)[O-])C1OS(=O)(=O)[O-].[Na+].[Na+].[Na+].[Na+].[Na+].[Na+] (stereo not shown) [Sodium Salt, inositol hexasulfate sodium salt]",92 percentage of inhibition,77 percentage of inhibition,27 percentage of inhibition,44 percentage of inhibition,48 percentage of inhibition,29 percentage of healing,16 percentage of healing,3.3 ± 0.4,58.4 ± 11.7,5.0 ± 0.4,"percentage of inhibition (Shay's Ulcer) ([1]; 50 mg/kg): 74 percentage of inhibition; percentage of inhibition (Stress Ulcer) ([2]; 500 mg/kg): 50 percentage of inhibition; percentage of inhibition (Aspirin Ulcer) ([3]; 50 mg/kg): 11 percentage of inhibition; percentage of inhibition (Cysteamine Duodenal Ulcer) ([8]; 100 mg/kg): 37 percentage of inhibition; percentage of inhibition (Cysteamine Duodenal Ulcer) ([8]; 250 mg/kg): 46 percentage of inhibition; percentage of inhibition (Cysteamine Duodenal Ulcer) ([8]; 500 mg/kg): 77 percentage of inhibition; percentage of healing (Acetic Acid Ulcer) ([4]; 500 mg/kg): 38 percentage of healing; LD50 ([9]; Oral): > 5,000 mg/kg; LD50 ([9]; Subcutaneous): > 2,500 mg/kg; LD50 ([10]; Oral): > 5,000 mg/kg; LD50 ([10]; Subcutaneous): > 2,500 mg/kg"
